Data on 34 compounds can be found in patent publication US20150291598A1 (NOVARTIS AG, priority 2012, published 2015).

Where only a bound is given, the exact number is not on record here.

In this assay the test system is P. falciparum (NF54 or 3D7 strain). Briefly: Assay for P. falciparum proliferation in infected human blood cells (SYBR Green). Type of assay: cell-based, Plasmodium falciparum. The note with it: Plasmodium falciparum, Erythrocyte, 72 h, NF54 or 3D7 infected human erythrocytes, 72 hours; read-out: EC50 (nM), inhibitory efficacy in delaying P. falciparum proliferation in infected human blood cells. Summed up:
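NF54 or 3D7 parasites in O+ human erythrocytes at 2.5% hematocrit and 0.3% parasitemia final, exposed to compounds 72 h at 37 °C under 93% N2/4% CO2/3% O2.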
As for `C=Cc1cnc2cnc(C(=O)N(C)c3ccc(Cl)nc3)cn12` [Compound 381, N-(6-chloropyridin-3-yl)-3-ethenyl-N-methylimidazo[1,2-a]pyrazine-6-carboxamide], the EC50 is 5110 nM.
In the case of `CN(C(=O)c1cn2c(-c3ccc(C(F)(F)F)cc3)cnc2cn1)c1ccc(C2CCC2)cn1` [Compound 382, N-(5-cyclobutylpyridin-2-yl)-N-methyl-3-[4-(trifluoromethyl)phenyl]imidazo[1,2-a]pyrazine-6-carboxamide] it was 8400 nM.
For `O=C(NCc1ccc(N2CCOCC2)cc1)c1cn2c(-c3ccc(C(F)(F)F)cc3)cnc2cn1` [Compound 383, N-{[4-(morpholin-4-yl)phenyl]methyl}-3-[4-(trifluoromethyl)phenyl]imidazo[1,2-a]pyrazine-6-carboxamide] the value was > 10000 nM; for `CN(C(=O)c1cn2c(-c3ccc(C(F)(F)F)cc3)cnc2cn1)c1ccc(C(C)(C)C)nc1` [Compound 384, N-(6-tert-butylpyridin-3-yl)-N-methyl-3-[4-(trifluoromethyl)phenyl]imidazo[1,2-a]pyrazine-6-carboxamide], 6620 nM; for `CN(C(=O)c1cn2c(-c3ccncc3)cnc2cn1)c1ccc(C#N)cc1` [Compound 385, -(4-cyanophenyl)-N-methyl-3-(pyridin-4-yl)imidazo[1,2-a]pyrazine-6-carboxamide], > 10000 nM.
In the case of `N#Cc1ccc(N(CCN)C(=O)c2cn3c(-c4ccc(C(F)(F)F)cc4)cnc3cn2)cc1` [Compound 386, N-(2-aminoethyl)-N-(4-cyanophenyl)-3-[4-(trifluoromethyl)phenyl]imidazo[1,2-a]pyrazine-6-carboxamide] it was > 10000 nM; in that of `CN(C(=O)c1cn2c(-c3cc4ccccc4[nH]3)cnc2cn1)c1ccc(Cl)nc1` [Compound 387, N-(6-chloropyridin-3-yl)-3-(1H-indol-2-yl)-N-methylimidazo[1,2-a]pyrazine-6-carboxamide], > 10000 nM.
`CN(C)Cc1ccc(-c2cnc3cnc(C(=O)N(C)c4ccc(Cl)nc4)cn23)cc1` [Compound 388, N-(6-chloropyridin-3-yl)-3-{4-[(dimethylamino)methyl]phenyl}-N-methylimidazo[1,2-a]pyrazine-6-carboxamide]: the EC50 is 762 nM.
In the case of `N#Cc1nc[nH]c1NC(=O)c1cn2c(-c3ccc(C(F)(F)F)cc3)cnc2cn1` [Compound 389, N-(4-cyano-1H-imidazol-5-yl)-3-[4-(trifluoromethyl)phenyl]imidazo[1,2-a]pyrazine-6-carboxamide] it was 2000 nM; in that of `Cc1cccnc1N(C)C(=O)c1cn2c(-c3ccc(C(F)(F)F)cc3)cnc2cn1` [Compound 390, N-methyl-N-(3-methylpyridin-2-yl)-3-[4-(trifluoromethyl)phenyl]imidazo[1,2-a]pyrazine-6-carboxamide], 2650 nM.
As for `CN(C(=O)c1cn2c(-c3cnc4c(cnn4C)c3)cnc2cn1)c1ccc(C#N)cc1` [Compound 391, N-(4-cyanophenyl)-N-methyl-3-{1-methyl-1H-pyrazolo[3,4-b]pyridin-5-yl}imidazo[1,2-a]pyrazine-6-carboxamide], the EC50 turned out to be 2910 nM.
Consider `FC(F)(F)c1ccc(-c2cnc3cnc(CN4CCOCC4)cn23)cc1` [Compound 392, 4-({3-[4-(trifluoromethyl)phenyl]imidazo[1,2-a]pyrazin-6-yl}methyl)morpholine], for which the EC50 stood at 3250 nM.
For the compound `CN(C(=O)c1cn2c(-c3ccc(C(N)=O)nc3)cnc2cn1)c1ccc(C#N)cc1` [Compound 393, 5-{6-[(4-cyanophenyl)(methyl)carbamoyl]imidazo[1,2-a]pyrazin-3-yl}pyridine-2-carboxamide], the EC50 came to 3940 nM.
In the case of `CN(C)c1ccc(N(C)C(=O)c2cn3c(-c4ccc(C(F)(F)F)cc4)cnc3cn2)cn1` [Compound 394, N-[6-(dimethylamino)pyridin-3-yl]-N-methyl-3-[4-(trifluoromethyl)phenyl]imidazo[1,2-a]pyrazine-6-carboxamide] it was 4910 nM; in that of `COc1ccc(N(C)C(=O)c2cn3c(-c4ccc(C(F)(F)F)cc4)cnc3cn2)nn1` [Compound 395, N-(6-methoxypyridazin-3-yl)-N-methyl-3-[4-(trifluoromethyl)phenyl]imidazo[1,2-a]pyrazine-6-carboxamide], 5020 nM; in that of `CN(C(=O)c1cn2c(-c3ccc4[nH]nc(N)c4c3)cnc2cn1)c1ccc(C#N)cc1` [Compound 396, 3-(3-amino-1H-indazol-5-yl)-N-(4-cyanophenyl)-N-methylimidazo[1,2-a]pyrazine-6-carboxamide], 5720 nM.
In the case of `NC(=O)C1CCCN(C(=O)c2cn3c(-c4ccc(C(F)(F)F)cc4)cnc3cn2)C1` (stereo not shown) [Compound 397, 1-({3-[4-(trifluoromethyl)phenyl]imidazo[1,2-a]pyrazin-6-yl}carbonyl)piperidine-3-carboxamide] it was 6550 nM; in that of `CNc1ccc(-c2cnc3cnc(C(=O)N(C)c4ccc(Cl)nc4)cn23)cc1` [Compound 398, N-(6-chloropyridin-3-yl)-N-methyl-3-[4-(methylamino)phenyl]imidazo[1,2-a]pyrazine-6-carboxamide], 6840 nM; in that of `COc1ncc(N(C)C(=O)c2cn3c(-c4ccc(C(F)(F)F)cc4)cnc3cn2)cn1` [Compound 399, N-(2-methoxypyrimidin-5-yl)-N-methyl-3-[4-(trifluoromethyl)phenyl]imidazo[1,2-a]pyrazine-6-carboxamide], 6980 nM.
In the case of `CN(C(=O)c1cn2c(-c3ccc(NCCN4CCOCC4)nc3)cnc2cn1)c1ccc(C#N)cc1` [Compound 400, -(4-cyanophenyl)-N-methyl-3-(6-{[2-(morpholin-4-yl)ethyl]amino}pyridin-3-yl)imidazo[1,2-a]pyrazine-6-carboxamide] it was 7850 nM.
Regarding `CN(C(=O)c1cn2c(-c3ccc(C#N)nc3)cnc2cn1)c1ccc(C#N)cc1` [Compound 401, N-(4-cyanophenyl)-3-(6-cyanopyridin-3-yl)-N-methylimidazo[1,2-a]pyrazine-6-carboxamide], the EC50 was > 10000 nM.
In the case of `CN(C(=O)c1cn2c(-c3ccc(OC(C)(C)CN)cc3)cnc2cn1)c1ccc(C#N)cc1` [Compound 402, 3-{4-[(1-amino-2-methylpropan-2-yl)oxy]phenyl}-N-(4-cyanophenyl)-N-methylimidazo[1,2-a]pyrazine-6-carboxamide] it was 3610 nM.
With `CN(C(=O)c1cn2c(C(=O)Nc3ccc(C(F)(F)F)cc3)cnc2cn1)c1ccc(Cl)nc1` [Compound 403, 6-N-(6-chloropyridin-3-yl)-6-N-methyl-3-N-[4-(trifluoromethyl)phenyl]imidazo[1,2-a]pyrazine-3,6-dicarboxamide], the EC50 was > 5980 nM.
In the case of `NC(=O)c1nc[nH]c1NC(=O)c1cn2c(-c3ccc(C(F)(F)F)cc3)cnc2cn1` [Compound 404, 5-C-3-[4-(trifluoromethyl)phenyl]imidazo[1,2-a]pyrazine-6-1H-imidazole-4,5-dicarboxamide] it was > 7570 nM; in that of `CC(c1ccc(Cl)cc1)N(C)C(=O)c1cn2c(-c3ccc(C(F)(F)F)cc3)cnc2cn1` (stereo not shown) [Compound 405, N-[1-(4-chlorophenyl)ethyl]-N-methyl-3-[4-(trifluoromethyl)phenyl]imidazo[1,2-a]pyrazine-6-carboxamide], > 8820 nM.
For `O=C(Nc1ccc(S(=O)(=O)Nc2nccs2)cc1)c1cn2c(-c3ccc(C(F)(F)F)cc3)cnc2cn1` [Compound 406, N-{4-[(1,3-thiazol-2-yl)sulfamoyl]phenyl}-3-[4-(trifluoromethyl)phenyl]imidazo[1,2-a]pyrazine-6-carboxamide] the value was > 8860 nM; for `CNc1ccc(-c2cnc3cnc(C(=O)N(C)c4ccc(Cl)nc4)cn23)cn1` [Compound 407, N-(6-chloropyridin-3-yl)-N-methyl-3-[6-(methylamino)pyridin-3-yl]imidazo[1,2-a]pyrazine-6-carboxamide], > 8970 nM.
As to `CN(C(=O)c1cn2c(-c3ccc(NC(=O)C(C)(C)N)cc3)cnc2cn1)c1ccc(C#N)cc1` [Compound 408, 3-[4-(2-amino-2-methylpropanamido)phenyl]-N-(4-cyanophenyl)-N-methylimidazo[1,2-a]pyrazine-6-carboxamide], the EC50 was > 9300 nM.
`Cc1ccc(N(C)C(=O)c2cn3c(-c4ccc(OCCN)cc4)cnc3cn2)nc1` [Compound 409, 3-[4-(2-aminoethoxyl)phenyl]-N-methyl-N-(5-methylpyridin-2-yl)imidazo[1,2-a]pyrazine-6-carboxamide]: the EC50 is > 9340 nM.
In the case of `CN(C(=O)c1cn2c(-c3ccc(-c4nnco4)cc3)cnc2cn1)c1ccc(Cl)nc1` [Compound 410, N-(6-chloropyridin-3-yl)-N-methyl-3-[4-(1,3,4-oxadiazol-2-yl)phenyl]imidazo[1,2-a]pyrazine-6-carboxamide] it was > 10000 nM; in that of `Cc1nc(C(=O)N2CCCc3cc(F)ccc32)cn2c(-c3ccc(C(F)(F)F)cc3)cnc12` [Compound 411, 6-fluoro-1-({8-methyl-3-[4-(trifluoromethyl)phenyl]imidazo[1,2-a]pyrazin-6-yl}carbonyl)-1,2,3,4-tetrahydroquinoline], > 7570 nM; in that of `CN(C(=O)c1cn2c(-c3ccc(C(F)(F)F)cc3)cnc2cn1)c1ccc(C2CCCC2)cn1` [Compound 412, N-(5-cyclopentylpyridin-2-yl)-N-methyl-3-[4-(trifluoromethyl)phenyl]imidazo[1,2-a]pyrazine-6-carboxamide], 7880 nM.
For `CN(C(=O)c1cn2c(-c3ccc(C(F)(F)F)nc3)cnc2cn1)c1ccc(Cl)nc1` [Compound 413, N-(6-chloropyridin-3-yl)-N-methyl-3-[6-(trifluoromethyl)pyridin-3-yl]imidazo[1,2-a]pyrazine-6-carboxamide] the value was 7400 nM.
In the case of `CC(C)(NC(=O)c1cn2c(-c3ccc(C(F)(F)F)cc3)cnc2cn1)c1ccc(F)cc1` [Compound 414, N-[2-(4-fluorophenyl)propan-2-yl]-3-[4-(trifluoromethyl)phenyl]imidazo[1,2-a]pyrazine-6-carboxamide] it was > 7910 nM.
